Results published in patent US20250041215A1, “MULTIDOSE PRESERVATIVE-FREE (MDPF) OPHTHALMIC DOSE DELIVERY WITH ADDITION OF FORMULATION SURFACTANTS” (ALCON INC., priority 2023, published 2025).

Test: Surface tension of ophthalmic composition with added surfactant (Biolin Sigma 700/701 tensiometer)
Format: physicochemical
Settings: surfactant added at 0.1% w/v to ophthalmic composition A or B, FIGS. 4-6

change of surface tension of the ophthalmic composition	change of surface tension of the ophthalmic composition (listed as tyloxapol)	Substance
surface tension was lowered		polyoxyl 40 stearate
surface tension was lowered		polysorbate 80
reduced the surface tension the most	surface tension was lowered	tyloxapol
